Source: article PMC6944487, “Tandem Molecular Self-Assembly Selectively Inhibits Lung Cancer Cells by Inducing Endoplasmic Reticulum Stress” (Research, 2019)
Where two headings read alike, the source gives them in different places. One block for each compound: values may come before it. *1 amine or outer side, *2 acyl side, *3 side chain or, on linkers, in order; H or OH if unused. Where a SMILES comes first, the peptide text is derived from it. [ ]: non-standard residue; d: D form. The star is where a group is joined. X1 = O=C(c1ccc(/N=N/c2ccc(N[*:1])cc2)cc1)[*:2]; pY = N[C@@H](Cc1ccc(OP(=O)(O)O)cc1)C(=O)O; NBD = O=[N+]([O-])c1ccc(*)c2nonc12; βAla = NCCC(=O)O

How the values were obtained:
A549 cells [1] = test: Cell proliferation (SRB) assay, A549; assay type: cell-based, human
Description: (§1) PC-3, MCF-7, HeLa, U87, HPAEpiC, and A549 cells were purchased from the Type Culture Collection of the Chinese Academy of Sciences (Shanghai, China); PC-3, MCF-7, HeLa, U87, and A549 cells were cultured in Dulbecco's Modified Eagle's medium (DMEM) supplemented with 10% v/v fetal bovine serum (FBS), 100 U/mL penicillin, and 100 μg/mL streptomycin; HPAEpiC cells were cultured in RPMI 1640 Medium supplemented with 10% v/v fetal bovine serum, 100 U/mL penicillin, and 100 μg/mL streptomycin. All cells were at 37°C in a humidified atmosphere of 5% CO2.
(§2) In this experiment, all cell lines were incubated in a 96-well plate at a density of about 6000. According to previous method, cell was fixed by cold 10% trichloroacetic acid solution at 4°C overnight after incubated with compound for 48 h. Then, discarding the fixative solution and washed by water for three times, put the 96-well plate in a 37°C oven to dry. Next, 0.4% SRB solution was used to stain cell for 20 min at room temperature to form protein-bound dry, then using 1% AcOH solution to clean excessive SRB. Put the 96-well plate in a 37°C oven to dry and add 10 mM Tris base solution of 100 μL every well to solubilize the protein-bound dry for 30 min. Measure the OD at 570 nm in a microplate reader.

PC-3 cells = test: Cell proliferation (SRB) assay, PC-3; assay type: cell-based; conditions: 48 h incubation, n = 3
Description: as §1, §2

A549 cells [2] = test: Lysosome colocalization (CLSM, Lyso-Tracker); assay type: cell-based, human; conditions: 200 μM; for lysosomal escape: 4 h, Lyso-Tracker; for mean fluorescence intensity in cells (versus cells treated with Comp. 4 and Comp. 5): A549 cells
Description: (§3) A549 cells was seeded in CLSM cultural dish at a density of 1 × 10^5 cells. After incubation for 12 h, a medium was removed. The cells were then incubated with Comp. 1, 2, 4, or 5 (200 μM) for 1 or 4 h (lysosome colocation). Cells were incubated with Comp. 1 (200 μM) for 8, 10, and 12 h (mitochondrial colocation). Next, the medium containing different compound was removed and washed by PBS for three times, and lysosome tracker (1×) was incubated with cells for 45 min. The medium was removed and the cells were washed by PBS three times. 1-2 mL of DMEM was added for imaging by live cell imaging systems (λexc. = 488 nm, emission = 510‐560 nm; λexc. = 543 nm, emission = 650‐750 nm). Mito-Tracker (1×) was incubated with cells for 30 min. The medium was then removed and washed by PBS three times. 1-2 mL of DMEM was added for imaging by live cell imaging systems (λexc. = 488 nm, emission = 510‐560 nm; λexc. = 633 nm, emission = 650‐750 nm, all test conditions are consistent).

different cell lines = test: Cell uptakes; assay type: cell-based; conditions: 200 μM, 6 h, cell lysate OD 488 nm, n = 3
Description: Cells were incubated in 12-well plates at a density of 10 × 10^6 cells. The cell cultural medium containing 200 μM of each compound was added to the cells, and the upper medium was removed at 6 h time point. Cells were washed for three times with PBS or DMEM. After being treated with cell lysis solution (1 mL per well contained 200 μL DMSO) for 15 min, the solutions were centrifuged at […] for 10 min. The amount of compound in the upper solution was determined by a microplate reader at OD of 488 nm (Bio-Rad Mark^TM, America).

[3] = Critical aggregation concentration (CAC) by dynamic light scattering; assay type: physicochemical; conditions: DLS, light scattering intensity per concentration, PBS pH 7.4
Description: The synthesized compounds were characterized by 1H NMR (Bruker ARX-400) using DMSO-d6 as the solvent. HPLC was conducted at the LUMTECH HPLC (Germany) system using a C18 RP column with methanol (0.05% of TFA) and water (0.05% of TFA) as the eluents. LC-MS was conducted at the LCMS-20AD (Shimadzu) system. HR-MS was performed at the Agilent 6520 Q-TOF LC/MS using ESI-L low concentration tuning mix (Lot No. LB60116 from the Agilent Tech.). CMC values and size distribution of micelles were determined by dynamic light scattering (DLS); this experiment was conducted on a laser light scattering spectrometer (BI-200SM, Brookhaven, USA). The morphology conversion of the peptide derivatives was measured by TEM performed on a Tecnai G2 F20 system, operating at 200 kV. Cellular uptake and drug tracking images were taken by a confocal laser scanning microscopy (Leica TSC SP8, Germany).
The CAC value of compounds 1, 2, 4, and 5 in PBS solution (pH = 7.4) was determined by dynamic light scattering (DLS), and the light scattering intensity was recorded for each concentration analyzed.

U87 cells = test: Cell proliferation (SRB) assay, U87; assay type: cell-based; conditions: 48 h incubation, n = 3
Description: as §1, §2

A549 xenograft tumors = test: In vivo antitumor assay, A549 xenograft; design: species or system BALB/c nude mice; conditions: 5 mg/kg i.v. once every three days, tumors at day 15
Description: (§4) A549 cells were maintained in our lab. The BALB/c nude (6 weeks old, female) mice purchased from Beijing Vital River Laboratory Animal Technology Co., Ltd. were used. 5 × 10^7 A549 cells (100 μL) mixed with growth factor-reduced Matrigel (50 μL, BD Biosciences) were subcutaneously injected into the right flank of each mouse. The drug treatment was started when tumor volume reached 80 mm^3; the tumor volume was calculated by the formula: length∗width^2/2. Mice (n = 5) received compounds 1, 2, 4, and 5 (5.0 mg/kg) in PBS by i.v. injection, whereas the control group (n = 5) received PBS only. The compound was injected every three days. The mice were weighed, and tumors were measured every two days during the treatment period.
The mice were sacrificed to obtain tumor tissues; tumor tissues were fixed by 4% formalin over 48 h, embedded in paraffin, cut into 5-6 μm sections for H&E staining, and evaluated using light microscopy as previously described method.

A549 cells [4] = test: Mitochondrial colocalization / cytoplasmic vacuolization, ER stress (CLSM, Mito-Tracker); assay type: cell-based, human; conditions: 200 μM, 10-12 h
Description: as §3

[5] = Appearance of solution in PBS; assay type: physicochemical; conditions: 200 μM (0.03 wt%) in PBS pH 7.4
Description: (§5) The Comp. […] 1. […] We thereafter added the enzyme ALP (1 U·mL^−1) to the PBS solution of Comp. 1 at 37°C, and the solution remained clear after 12 h (Figure 2(a)). […] 1 had been converted to Comp. 2 within 6 h (Figures 2(a) and ). Accordingly, the nanofibers with a diameter of 6–10 nm formed in the resulting solution of Comp. 2 (Figure 2(c)). With the addition of rat liver microsomes (226 μg·mL^−1) and NADPH (50 equiv.) to trigger the conversion from azobenzene to aniline, a yellowish precipitate was clearly observed within 24 h (Figure 2(b)). […] 2 had been converted into Comp. 3 within 24 h (Figures 2(b) and ). […] 2 and Comp. 3. […] The above observations strongly indicated the tandem molecular self-assembly behavior of Comp. 1 with the catalysis by ALP and reductase.
(§6) […] of Comp. 1 was dissolved in 500 μL of PBS (pH = 7.4) as a stock solution (PBS was bubbled by Argon for 30 min in advance). The concentration of the stock solution was 200 μM. Na2CO3 (1 M) was added to the above solution to adjust the final pH to 7.4. The solution was incubated at 37°C. The alkali phosphatase (1 U/mL) was then added to the solution for 12 hours at 37°C to trigger the first step of self-assembly. After that, rat liver microsomes (226 μg/mL) and NADPH (50 equiv.) were added for 24 hours at 37°C to trigger the second step of self-assembly.

A549 cells [6] = test: JC-1 staining, mitochondrial membrane potential; assay type: cell-based, human; conditions: 200 μM, 4 h time point
Description: Mitochondrial membrane potential was assessed by staining with JC-1 dye (5,50,6,60-tetrachloro-1,10,3,30-tetraethylbenzimidazol-carbocyanine iodide) (abcam). 1 × 10^4 A549 cells per well, seeded in 96-well plates, were treated with Comp.1 (200 μM) for different time points and FCCP (100 μM) for 4 h. After treatment, a medium was removed and the cells were then incubated in 100 μL PBS containing JC-1 dye (20 μM) for 15 min at 37°C and subsequently washed with PBS for three times. The red fluorescence (λexc. = 543 nm, emission = 570‐620 nm) was determined by a microplate reader (BioTek).
A549 cells were seeded in CLSM cultural dish at a density of 1 × 10^5 cells. After incubation for 12 h, a medium was removed. The cells were then incubated with Comp. 1 (200 μM) at different time points. The cells also were incubated with FCCP (100 μM) for 4 h as the positive control group. Then, removing medium, JC-1 staining kit (20 μM) was incubated with A549 cells for 15 min. The medium was removed, and the cells were washed by PBS three times. 1 mL of PBS was added for imaging by live cell imaging systems (green channel (depolarization) λexc. = 488 nm, emission = 500 − 540 nm; red channel (hyperpolarization) λexc. = 543 nm, emission = 570‐620 nm, all test conditions are consistent).

HeLa cells = test: Cell proliferation (SRB) assay, HeLa; assay type: cell-based; conditions: 48 h incubation, n = 3
Description: as §1, §2

[7] = test system: T1, alkaline phosphatase (ALP); test: Conversion by alkaline phosphatase (LC-MS); assay type: in vitro ADME; conditions: alkaline phosphatase (ALP) in PBS; ALP 1 U/mL, 200 μM in PBS pH 7.4, 37°C, within 6 h, LC-MS trace; read-out: Comp. 1 converted to Comp. 2
T1 construct: purchased Takara D2250
Description: as §5, §6

MCF-7 cells = test: Cell proliferation (SRB) assay, MCF-7; assay type: cell-based; conditions: 48 h incubation, n = 3
Description: as §1, §2

[8] = test system: normal human alveolar epithelial cells (HPAEpiC); test: Cell proliferation (SRB) assay, HPAEpiC; assay type: cell-based; conditions: 48 h incubation, n = 3
Description: as §1, §2

[9] = Body weight of treated tumor-bearing mice; assay type: in vivo, BALB/c nude mice; conditions: 5 mg/kg i.v. once every three days
Description: as §4

[10] = test system: reductase (rat liver microsomes); test: in vitro; assay type: in vitro ADME; conditions: pH 7.4
Description: as §5, §6

[11] = SRB, 48 h incubation, mean ± SEM n = 3, read-out: IC50 in A549 cells

IC50 (A549 cells [1]; 48 h): > 500 µM
Structure (SMILES): N=C(N)NCCC[C@H](NC(=O)[C@H](CCC(=O)O)NC(=O)CNC(=O)[C@H](Cc1ccc(O)cc1)NC(=O)[C@H](Cc1ccccc1)NC(=O)[C@H](Cc1ccccc1)NC(=O)CNC(=O)CCNc1ccc([N+](=O)[O-])c2nonc12)C(=O)NCC(=O)N[C@@H](CC(=O)O)C(=O)O [Comp. 5, NBD-GFFYGERGD] ({NBD-βAla}-GFFYGERGD-OH)

Structure (SMILES): N=C(N)NCCC[C@H](NC(=O)[C@H](CCC(=O)O)NC(=O)c1ccc(/N=N/c2ccc(NC(=O)CNC(=O)[C@H](Cc3ccc(OP(=O)(O)O)cc3)NC(=O)[C@H](Cc3ccccc3)NC(=O)[C@H](Cc3ccccc3)NC(=O)CNC(=O)CCNc3ccc([N+](=O)[O-])c4nonc34)cc2)cc1)C(=O)NCC(=O)N[C@@H](CC(=O)O)C(=O)O [Comp. 1, NBD-GFFpYG-N=N-ERGD] ({NBD-βAla}-GFF[pY]G[X1]ERGD-OH)
IC50 (PC-3 cells): ~20.5 µM
lysosomal escape (A549 cells [2]): efficiently escaped from the late endosomes/lysosomes
mean fluorescence intensity in cells (versus cells treated with Comp. 4 and Comp. 5) (A549 cells [2]): significantly higher
IC50 (A549 cells [1]; [11]): ~2.49 µM
cellular uptake in different cells (different cell lines): no significant differences
critical aggregation concentration (CAC) [3]: 263.6 µM
IC50 (U87 cells): ~5.07 µM
H&E histology of tumor tissue (A549 xenograft tumors): severely apoptotic
ER stress / cytoplasmic vacuolization (A549 cells [4]): massive cytoplasmic vacuolization
appearance of solution [5]: clear solution
mitochondrial membrane potential (JC-1) (A549 cells [6]): caused mitochondrial depolarization
IC50 (HeLa cells): ~74.7 µM
metabolised at 6 h, 200 μM [7]: > 95%
IC50 (MCF-7 cells): ~15.9 µM
IC50 [8]: ~40.1 µM
body weight change [9]: did not exhibit a loss of body weight

Structure (SMILES): N=C(N)NCCC[C@H](NC(=O)[C@H](CCC(=O)O)NC(=O)CNC(=O)[C@H](Cc1ccc(OP(=O)(O)O)cc1)NC(=O)[C@H](Cc1ccccc1)NC(=O)[C@H](Cc1ccccc1)NC(=O)CNC(=O)CCNc1ccc([N+](=O)[O-])c2nonc12)C(=O)NCC(=O)N[C@@H](CC(=O)O)C(=O)O [Comp. 4, NBD-GFFpYGERGD] ({NBD-βAla}-GFF[pY]GERGD-OH)
IC50 (A549 cells [1]; [11]): > 500 µM

Structure (SMILES): N=C(N)NCCC[C@H](NC(=O)[C@H](CCC(=O)O)NC(=O)c1ccc(/N=N/c2ccc(NC(=O)CNC(=O)[C@H](Cc3ccc(O)cc3)NC(=O)[C@H](Cc3ccccc3)NC(=O)[C@H](Cc3ccccc3)NC(=O)CNC(=O)CCNc3ccc([N+](=O)[O-])c4nonc34)cc2)cc1)C(=O)NCC(=O)N[C@@H](CC(=O)O)C(=O)O [Comp. 2, NBD-GFFYG-N=N-ERGD] ({NBD-βAla}-GFFYG[X1]ERGD-OH)
lysosomal escape (A549 cells [2]): small fraction of lysosomal escape
mean fluorescence intensity in cells (versus cells treated with Comp. 4 and Comp. 5) (A549 cells [2]): significantly higher
IC50 (A549 cells [1]; [11]): 82.7 µM
H&E histology of tumor tissue (A549 xenograft tumors): underwent apoptosis
ER stress / cytoplasmic vacuolization (A549 cells [4]): only caused slight ER stress
metabolised at 24 h, 200 μM [10]: > 70%
